# Test results published in US20130084335A1, “IVABRADINE-CONTAINING PHARMACEUTICAL COMPOSITION” (ratiopharm GmbH, priority 2010, published 2013).
# What was measured:
# [1] = Stability at different temperatures and humidities in open or closed containers (polymorphic form); assay type: physicochemical; conditions: for Stability, summary in words: various conditions, phase transition in particular in open containers
# Protocol: XRD samples were analysed on a Bruker-AXS D8 Advance powder X-Ray diffractometer. The measurement conditions were as follows: • Measurement in Bragg-Brentano-Geometry on vertical goniometer (reflection, theta/theta, 435 mm measurement circle diameter) • with sample rotation (30 rpm) on 9 position sample stage • Radiation: Cu Kα1 (1.5406 Å), Tube (Siemens FLCu2K), power 40 kV/40 mA • Detector: position sensitive detector VANTEC-1 • 3° capture angle (2theta), • Anti scatter slit 6.17 mm • Detector slit 10.39 mm • 4° soller slit, • primary beam stop (<2° 2theta) • Monochromator: None • Second β filter: Ni filter 0.1 mm (0.5%) • Start angle: 2° • End Angle: 55° • Measurement time: 11 min • Step: 0.016° 2Theta • Software: EVA (Bruker-AXS, Karlsruhe).
# The stability of ivabradine adipate in comparison to ivabradine hydrochloride form I was investigated at different temperatures and humidities in open or closed containers for different storage times.
# [2] = Particle size by laser diffractometry; assay type: physicochemical
# Protocol: The term “particle size” according to the present invention relates to the maximum diameter of the equivalent product assuming spherical opaque particles showing the same light scattering pattern and the same diffraction as the active substance particles. According to the invention the particle size is determined by means of laser light diffraction. The determination of the size distribution results from the analysis of the diffraction pattern that is obtained if particles are exposed to a monochromatic light beam. The particles refract the light with small particles refracting the light in a greater angle than large particles. The refracted light is measured by a number of photo detectors arranged in different angles. On the other hand, the light spectra of the […] have to be recorded by light-sensitive detectors in greater angles over the laser beam. Large particles result in greater intensity maxima with small angles, small particles to weaker intensity maxima with greater angles. Thus, in the laser light diffraction the pattern resulting from the interaction of the light with the particles is used for the determination of the particle size.
# According to the invention the particle size is determined by means of laser diffractometry. For that, a Mastersizer 2000 by Malvern Instruments having the corresponding sample dispersing unit Hydro S is used. The wet measurement (2500 rpm, ultrasound 10-20 min., shading 5 to 20%) takes place in a dispersion of sunflower oil with the particle spacing in the dispersion being about 3-5 times greater than the particle diameter.
# Moreover, the Mie theory defines the secondary scattering caused by the refraction of the light on small particles, as in the international rules of the laser diffraction measurement. (ISO 13320)
# The determination of the particle size for particles D50 smaller than 5.0 μm is carried out according to the Mie method and for particles D50 greater than 5.0 μm according to the Fraunhofer method.
SMILES,"Stability (crystal form after storage) ([1]; 25° C./60%, closed, 33 d)","Stability (crystal form after storage) ([1]; 25° C./60%, open, 33 d)","Stability (crystal form after storage) ([1]; 30° C./65%, closed, 33 d)","Stability (crystal form after storage) ([1]; 30° C./65%, open, 33 d)","Stability (crystal form after storage) ([1]; 40° C./75%, closed, 33 d)","Stability (crystal form after storage) ([1]; 40° C./75%, open, 33 d)","Stability, summary in words [1]",Particle size D50 [2],Particle size D90 [2],"Stability (crystal form after storage) ([1]; 25° C./60%, closed, 57 d)","Stability (crystal form after storage) ([1]; 25° C./60%, open, 57 d)","Stability (crystal form after storage) ([1]; 30° C./65%, closed, 57 d)","Stability (crystal form after storage) ([1]; 30° C./65%, open, 57 d)","Stability (crystal form after storage) ([1]; 40° C./75%, closed, 57 d)","Stability (crystal form after storage) ([1]; 40° C./75%, open, 57 d)"
COc1cc2c(cc1OC)CC(=O)N(CCCN(C)C[C@H]1Cc3cc(OC)c(OC)cc31)CC2.Cl [Ivabradine HCl form I],unchanged,β +,unchanged,β,unchanged,β,"undergoes phase transition into ivabradine HCl, form beta, or form d",19.10 μm,44.11 μm,,,,,,
COc1cc2c(cc1OC)CC(=O)N(CCCN(C)C[C@H]1Cc3cc(OC)c(OC)cc31)CC2.O=C(O)CCCCC(=O)O [Ivabradine adipate],,,,,,,stable at various conditions,18.35 μm,52.71 μm,unchanged,unchanged,unchanged,unchanged,unchanged,unchanged
